In US20160137639A1, “TRIAZOLE-ISOXAZOLE COMPOUND AND MEDICAL USE THEREOF” (JAPAN TOBACCO INC., priority 2012, published 2016):
Like-named read-outs stand apart in the source and are kept apart here.

Assays:
human RORγ = target: T1, human RORγ (Homo sapiens, UniProt P51449); assay: Luciferase reporter gene assay of inhibitory effect against RORγ transcriptional activity (GAL4-hRORγ plasmid in CHO cells); format: cell-based
T1 construct: human, NM_005060.3 and from Ser253 to Lys518; expressed in transfected cells; host or cells: CHO cells (transient co-transfection with pG5-Luc reporter)
T1 sequence (P51449 253-518): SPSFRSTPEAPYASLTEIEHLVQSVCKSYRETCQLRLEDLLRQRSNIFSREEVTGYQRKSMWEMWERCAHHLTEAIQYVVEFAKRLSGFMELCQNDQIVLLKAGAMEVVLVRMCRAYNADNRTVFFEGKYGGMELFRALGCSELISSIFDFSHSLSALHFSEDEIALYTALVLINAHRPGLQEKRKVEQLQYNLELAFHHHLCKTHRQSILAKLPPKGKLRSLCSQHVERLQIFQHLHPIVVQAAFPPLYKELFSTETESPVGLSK

mouse RORγ = target: T2, mouse RORγ (Mus musculus, UniProt P51450); assay: Luciferase reporter gene assay of inhibitory effect against RORγ transcriptional activity (GAL4-mRORγ plasmid in CHO cells); format: cell-based
T2 construct: mouse, NM_011281.2 and from Ile251 to Lys516; expressed in transfected cells; host or cells: CHO cells (transient co-transfection with pG5-Luc reporter)
T2 sequence (P51450 251-516): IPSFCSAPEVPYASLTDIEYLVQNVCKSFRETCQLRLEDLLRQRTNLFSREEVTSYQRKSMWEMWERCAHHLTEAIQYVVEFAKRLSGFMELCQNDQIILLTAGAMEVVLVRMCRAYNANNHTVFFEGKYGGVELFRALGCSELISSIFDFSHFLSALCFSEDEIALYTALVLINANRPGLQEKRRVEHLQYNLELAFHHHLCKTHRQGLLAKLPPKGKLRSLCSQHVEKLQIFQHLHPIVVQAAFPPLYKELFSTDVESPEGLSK
Summary of the method: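 Readout is intracellular luciferase after 2-day compound exposure (8 concentrations, 0.1% DMSO) in CHO cells expressing GAL4 fused to mouse RORγ LBD residues Ile251–Lys516 plus pG5-Luc reporter. EC50 fitted from %-of-control; points showing resazurin-detected cytotoxicity dropped.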

Structure (SMILES) | EC50 (human RORγ; read-out: LUC EC50 (μM) hRORg) [µM] | EC50 (mouse RORγ; read-out: LUC EC50 (μM) mRORg) [µM] | EC50 (human RORγ; read-out: LUC EC50 hRORg) [µM] | EC50 (mouse RORγ; read-out: LUC EC50 mRORg) [µM]
Cc1ccc(NC(=O)CC(CC(=O)N(C)C)c2nnc(CCCC(C)C)n2C2CC2)c(C)c1 (racemic) [Example F-266] | < 3 | < 3 | – | –
Cc1cc(Cl)ccc1NC(=O)C[C@H](CCC(=O)O)c1noc(-c2cc(CCC(C)(C)C)on2)c1C1CC1 [Example E-38] | < 3 | < 3 | – | –
Cc1ccc(NC(=O)CC(CN2C(=O)N(C)C(C)(C)C2=O)c2nnc(CCCC(C)(C)C)n2C2CC2)c(C)c1 (racemic) [Example F-508] | – | – | > 3 | > 3
Cc1c(NC(=O)CCc2nnc(CCC(C)C)n2C2CC2)ccc(Cl)c1Cl [Example F-165] | > 3 | < 3 | – | –
Cc1ccc(NC(=O)CCc2nnc(CCC3CCC(F)(F)CC3)n2C2CC2)c(C)c1 [Example F-256] | < 3 | < 3 | – | –
Cc1ccc(NC(=O)C[C@H](Cc2noc(=O)[nH]2)c2noc([C@H]3C[C@@H](CC(C)C)C3)c2C2CC2)c(C)c1 [Example F-640] | – | – | < 3 | < 3
CCC(C)(C)C[C@H]1C[C@@H](c2onc([C@@H](CCC(=O)O)CC(=O)Nc3ccc(C)nc3C)c2C(F)(F)F)C1 [Example F-697] | – | – | < 3 | < 3
Cc1ccc(NC(=O)CC(c2nnc(CCCC(C)(C)C)n2C2CC2)C(C)C)c(C)c1 (racemic) [Example F-453] | < 3 | < 3 | – | –
Cc1c(Cl)cccc1NC(=O)CCc1nnc(CCOC(C)C)n1C1CC1 [Example F-218] | > 3 | < 3 | – | –
COCc1ccc(NC(=O)CCc2nnc(CCC(C)C)n2C2CC2)c(C)c1 [Example F-136] | > 3 | > 3 | – | –
CC(=O)NCC(CC(=O)Nc1ccc(C)cc1C)c1nnc(CCCC(C)C)n1C1CC1 (racemic) [Example F-277] | > 3 | < 3 | – | –
Cc1c(Cl)cccc1NC(=O)CCc1nnc(C2CCCC(C)C2)n1C1CC1 (stereo not drawn) [Example F-135] | > 3 | < 3 | – | –
Cc1ccc(NC(=O)[C@H]2CN(C(=O)OC(C)(C)C)C[C@@H]2c2nnc([C@H]3C[C@@H](CC(C)(C)C)C3)n2C2CC2)c(C)c1 [Example F-540] | – | – | < 3 | < 3
CC(C)(C)C[C@H]1C[C@@H](c2onc([C@@H](CCC(=O)O)CC(=O)NC34CC(C3)C4)c2C2CC2)C1 [Example F-712] | – | – | > 3 | > 3
Cc1ccc(NC(=O)C[C@@H](c2nnc([C@H]3C[C@@H](CC(C)C)C3)n2C2CC2)N(C)C(C)C)c(C)c1 [Example F-537] | – | – | < 3 | < 3
Cc1ccc(NC(=O)C[C@H](CC(C)C)c2nnc(-c3cc(CCC(C)C)on3)n2C2CC2)c(C)c1 [Example F-627] | – | – | < 3 | < 3
Cc1ccc(NC(=O)C[C@H](CCC(=O)O)c2noc(-c3cc(C4(CC(C)C)CC4)on3)c2C2CC2)c(Cl)c1 [Example E-23] | < 3 | < 3 | – | –
Cc1ccc(NC(=O)C[C@H](CCO)c2nnc([C@H]3C[C@@H](CC(F)(F)F)C3)n2C2CC2)c(C)c1 [Example F-587] | – | – | < 3 | < 3
Cc1ccc(NC(=O)CCc2cc([C@H]3C[C@@H](CC(C)(C)C)C3)on2)c(Cl)c1 [Example F-733] | – | – | < 3 | < 3
Cc1ccc(NC(=O)C[C@H](CCC(=O)O)c2nnn([C@H]3C[C@@H](CC(C)(C)C(C)C)C3)c2C2CC2)c(Cl)c1 [Example F-713] | – | – | < 3 | < 3
C=CCC(CC(=O)NCc1ccc(C)cc1OC)c1nnc(CCCC(C)C)n1C1CC1 (racemic) [Example F-200] | < 3 | < 3 | – | –
Cc1cc(C(N)=O)ccc1NC(=O)CCc1nnc(CCC(C)C)n1C1CC1 [Example F-157] | > 3 | > 3 | – | –
Cc1cc(CO)ccc1NC(=O)CCc1nnc(CCC(C)C)n1C1CC1 [Example F-88] | > 3 | > 3 | – | –
CC(C)C(F)(F)c1cc(-c2onc([C@@H](CCC(=O)O)CC(=O)Nc3ccc(Cl)cc3F)c2C2CC2)no1 [Example E-55] | < 3 | < 3 | – | –
Cc1ccc(NC(=O)CC(CO)c2nnc(CCCC(C)(C)C)n2C2CC2)c(C)c1 (racemic) [Example F-497] | – | – | < 3 | < 3
CC(=O)N1C[C@@H](C(=O)Nc2ccc(C)cc2C)[C@H](c2nnc([C@H]3C[C@H](OC(C)C)C3)n2C2CC2)C1 [Example F-335] | > 3 | > 3 | – | –

Structure (SMILES) | EC50 (human RORγ; read-out: LUC EC50 (μM) hRORg) [µM] | EC50 (mouse RORγ; read-out: LUC EC50 (μM) mRORg) [µM] | EC50 (human RORγ; read-out: LUC EC50 hRORg) [µM] | EC50 (mouse RORγ; read-out: LUC EC50 mRORg) [µM]
Cc1ccc(NC(=O)C[C@@H](CCO)c2nnc(-c3cc(CC(C)C)on3)n2C2CC2)c(C)c1 [Example F-458] | > 3 | > 3 | – | –
CC(=O)N1CC[C@H](C(=O)Nc2ccc(C)cc2C)[C@H]1c1nnc(CCC2CCCCC2)n1C1CC1 [Example F-227] | < 3 | < 3 | – | –
Cc1ccc(NC(=O)C[C@H](Cc2nccs2)c2nnc([C@H]3C[C@@H](CC(C)C)C3)n2C2CC2)c(C)c1 [Example F-475] | < 3 | < 3 | – | –
C=C1C[C@H](C(=O)Nc2ccc(C)cc2C)[C@@H](c2nnc([C@H]3C[C@@H](CC(C)C)C3)n2C2CC2)C1 (racemic) [Example F-517] | – | – | < 3 | < 3
Cc1ccc(NC(=O)C[C@@H](C[C@H](O)CO)c2nnc(CCCC(C)C)n2C2CC2)c(C)c1 [Example F-342] | > 3 | > 3 | – | –
CC(=O)N1C[C@H](C(=O)Nc2ccc(C)cc2C)[C@@H](c2nnc(CCC3CCCCC3)n2C2CC2)C1 [Example F-402] | < 3 | < 3 | – | –
CCc1ccccc1NC(=O)CCc1nnc(CCC(C)C)n1C1CC1 [Example F-72] | > 3 | > 3 | – | –
CC(=O)N1C[C@H](C(=O)Nc2ccc(Cl)cc2C)[C@@H](c2nnc([C@H]3C[C@@H](CC(C)C)C3)n2C2CC2)C1 [Example F-603] | – | – | < 3 | < 3
Cc1ccc(CNC(=O)CCc2nnc(CCC(C)C)n2C2CC2)c(O)c1 [Example F-149] | > 3 | > 3 | – | –
C=CCC(CC(=O)Nc1ccc(C)cc1C)c1nnc(CCCC(C)(C)C)n1CC(F)(F)F (racemic) [Example F-373] | < 3 | < 3 | – | –
Cc1ccc(C#N)cc1NC(=O)CCc1nnc(CCC(C)C)n1C1CC1 [Example F-143] | > 3 | > 3 | – | –
CCCC(CC(=O)Nc1cccc(Cl)c1C)c1nnc(CCC(C)C)n1C1CC1 (racemic) [Example F-194] | < 3 | < 3 | – | –
Cc1ccc(NC(=O)C[C@H](CCO)c2nnc(-c3cc(CC(C)C)on3)n2C2CC2)c(C)c1 [Example F-457] | < 3 | > 3 | – | –
Cc1cc(Cl)ccc1NC(=O)C[C@H](OCC(F)(F)F)c1nnc(-c2cc(CC(C)C)on2)n1C1CC1 [Example F-630] | – | – | < 3 | < 3
Cc1ccc(NC(=O)CC(CCOCc2ccccc2)c2nnc(-c3cc(CC(C)C)on3)n2C2CC2)c(C)c1 (racemic) [Example F-455] | > 3 | < 3 | – | –
COC1C[C@@H](C(=O)Nc2ccc(C)cc2C)[C@H](c2nnc([C@H]3C[C@@H](CC(C)C)C3)n2C2CC2)C1 (single isomer, unassigned) [Example F-555] | – | – | > 3 | > 3
Cc1ccc(NC(=O)C[C@H](CCO)c2nnc([C@H]3C[C@@H](CC(C)(C)C)C3)n2C2CC2)c(C)c1 [Example F-561] | – | – | < 3 | < 3
Cc1ccc(NC(=O)C[C@H](CCC(=O)O)c2noc([C@H]3C[C@@H](CC(C)(C)CO)C3)c2C2CC2)c(Cl)c1 [Example F-716] | – | – | < 3 | < 3
Cc1c(Cl)cccc1NC(=O)CCc1nnc(CCOC(C)(C)C)n1C1CC1 [Example F-163] | < 3 | < 3 | – | –
CC(=O)N1C[C@H](C(=O)Nc2ccc(C)cc2C)[C@@H](c2nnc([C@H]3C[C@H](OC(C)C)C3)n2C2CC2)C1 [Example F-334] | < 3 | < 3 | – | –
Cc1ccc(NC(=O)C[C@H](CCC(=O)O)c2noc(-c3cc(CC(C)C)on3)c2C2CC2)c(Cl)c1 [Example E-01] | < 3 | < 3 | – | –
CC(C)CCc1nnc(CCC(=O)N[C@@H](C)c2ccccc2)n1C1CC1 [Example F-62] | > 3 | > 3 | – | –
CCN(CC)C(=O)CN1C[C@H](C(=O)Nc2ccc(C)cc2C)[C@@H](c2nnc([C@H]3C[C@@H](CC(C)C)C3)n2C2CC2)C1 [Example F-653] | – | – | < 3 | < 3
COc1cc(C)ccc1CNC(=O)CCc1nnc(CCC(C)C)n1C1CC1 [Example F-148] | < 3 | < 3 | – | –
Cc1ccc(NC(=O)C[C@H](OC(C)C)c2nnc([C@H]3C[C@@H](CC(C)C)C3)n2C2CC2)c(C)c1 [Example F-558] | – | – | < 3 | < 3
